Literature values in patent publication US20260248129A1, “SPRAYABLE SUBSTANCES FOR PHOTOSYNTHESIS ENHANCEMENT” (Sensei Ag Holdings, Inc., priority 2023, published 2026).
Values after ≈ are worked out from the molar mass of the structure shown. Where two headings read alike, the source gives them in different places.

Key:
[1] = ethanol, methanol, hexane, ether, and a variety of other solvents
[2] = not given; remark: listed apart in the source

SMILES: c1ccc2cc3ccccc3cc2c1 [anthracene, Anthracene]
- solubility in water (in words) (water): slightly soluble
- water solubility (water at 25° C.): 0.044 mg/L (≈ 0.247 µM)
- solubility in organic solvents (in words) [1]: very soluble
- stability under light (in words) [2]: does eventually degrade under light

SMILES: O=c1ccc2ccccc2o1 [coumarin, Coumarin]
- water solubility (water): 0.17 mg/100 mL
